Test results taken from US10919923B2, “Organic phosphorus-based compound, and flame retardant and flame-retardant product comprising the same” (TEIJIN LIMITED, priority 2016, dated 2021).

Tests used:
Format in all cases: physicochemical
[1] = ΔpH value of filtrate after stirring compound in dispersant solution; conditions: 1 g compound in 1% phenol type nonionic surfactant solution, |pH1−pH2|
Method: The ΔpH value can be measured by the following method using a commercially available pH measuring instrument. 1 g of a dispersant is added to 99 g of distilled water used for the measurement and stirred to measure the pH of the obtained aqueous solution (the measurement value is designated as pH1). After 1 g of the organic phosphorus-based compound (1) of the present invention is added to the aqueous solution and stirred for 1 minute, the organic phosphorus-based compound (1) is filtered. The pH of the obtained filtrate is measured (the measurement value is designated as pH2). The ΔpH value of the present invention is calculated from the following equation (I). ΔpH value=|pH1−pH2| (I) (vi) Volume Standard Median Diameter, (vii) Maximum Particle Diameter, (viii) Standard Deviation
This was measured by the following method using a pH measuring instrument (HORIBA pH METER D-52 of HORIBA, LTD.). 1 g of a dispersant (phenol type nonionic surfactant) was added to 99 g of distilled water used for the measurement and stirred to measure the pH of the obtained aqueous solution (the measurement value was designated as pH1). After 1 g of the organic phosphorus-based compound was added to the aqueous solution and stirred for 1 minute, the organic phosphorus-based compound was filtered. The pH of the obtained filtrate was measured (the measurement value was designated as pH2). The ΔpH value was calculated from the following equation (I). ΔpH value=|pH1−pH2| (I) (vi) Volume Standard Median Diameter, (vii) Maximum Particle Diameter, (viii) Standard Deviation

[2] = Storage stability of processing agent (fire retardant for fibers); set-up: key: ◯: no agglomeration and no sedimentation are seen by visual checking; X: agglomeration and sedimentation are seen by visual checking; conditions: processing agent with 30 parts compound per 100 parts polyacrylic acid ester emulsion, 25° C. for 24 hours
Method: After interior car sheet cloth for automobiles was coated with the following processing liquid, its flame resistance and physical properties were tested. (test cloth): Polyester 100% woven car sheet cloth (weight of 300 g/m^2) was used. (processing agent): This was prepared by adding 1.5 parts of a nonionic surfactant, 1 part of a polyacrylic acid-based thickener and 0.5 part of 25% ammonia water to 100 parts of a polyacrylic acid ester emulsion having a solid content of 45% and further adding 30 parts of each of the above organic phosphorus-based compounds (FR-1 to FR-6) under agitation. The obtained processing agent was left to stand at 25° C. for 24 hours to evaluate its storage stability based on the following criteria.
◯: no agglomeration and no sedimentation are seen by visual checking
X: agglomeration and sedimentation are seen by visual checking

[3] = Solubility in 20° C. water (visual check of dissolution); conditions: distilled water at 20° C., stirred 1 minute per addition
Method: Dissolution was visually checked after the organic phosphorus-based compound was added little by little to 100 g of distilled water adjusted to 20° C. and stirred for 1 minute for each addition.

[4] = Particle size distribution by Microtrack HRA
Method: The volume standard median diameter (vi), the maximum particle diameter (vii) and the standard deviation (viii) can be measured by using the microtrack of Nikkiso Co., Ltd. and measurement conditions that the particles should be transparent and that the particle shape should be nonspherical.
They were measured by using the Microtrack HRA of Nikkiso Co., Ltd. The measurement conditions are that the particles should be transparent, the particle shape should be nonspherical, the refractive index of the particles should be 1.60, and the refractive index of the solvent should be 1.33.

| SMILES | (v) ΔpH value [1] | Stability [2] | (ii) Solubility in 20° C. water [3] | (vi) Volume standard median diameter [4] | (vii) Maximum particle diameter [4] |
| --- | --- | --- | --- | --- | --- |
| O=P1(CCc2ccccc2)OCC2(CO1)COP(=O)(CCc1ccccc1)OC2 (stereo not drawn) [FR-3, 2,4,8,10-tetraoxa-3,9-diphosphaspiro[5.5]undecane,3,9-di(2-phenylethyl)-3,9-dioxide] | 0.3 | ◯ | 0.01 g/100 g of water | 22 μm | 140 μm |
| O=P1(Cc2ccccc2)OCC2(CO1)COP(=O)(Cc1ccccc1)OC2 (single isomer, unassigned) [FR-5, 2,4,8,10-tetraoxa-3,9-diphosphaspiro[5.5]undecane, 3,9-dibenzyl-3,9-dioxide] | 0.5 | ◯ | 0.01 g/100 g of water | 40 μm | 300 μm |
| O=P1(C(c2ccccc2)c2ccccc2)OCC2(CO1)COP(=O)(C(c1ccccc1)c1ccccc1)OC2 (stereo not drawn) [FR-4, 2,4,8,10-tetraoxa-3,9-diphosphaspiro[5.5]undecane, 3,9-bis(diphenylmethyl)-3,9-dioxide] | 0.7 | ◯ | 0.01 g/100 g of water | 25 μm | 180 μm |
| O=P1(Cc2ccccc2)OCC2(CO1)COP(=O)(Cc1ccccc1)OC2 (single isomer, unassigned) [FR-6, 2,4,8,10-tetraoxa-3,9-diphosphaspiro[5.5]undecane,3,9-dibenzyl-3,9-dioxide] | 1.3 | X | 0.01 g/100 g of water | 21 μm | 140 μm |
| CC(c1ccccc1)P1(=O)OCC2(CO1)COP(=O)(C(C)c1ccccc1)OC2 (stereo not drawn) [FR-2, 2,4,8,10-tetraoxa-3,9-diphosphaspiro[5.5]undecane,3,9-diα-methylbenzyl-3,9-dioxide] | 0.6 | ◯ | 0.01 g/100 g of water | 20 μm | 160 μm |
| O=P1(Cc2ccccc2)OCC2(CO1)COP(=O)(Cc1ccccc1)OC2 (single isomer, unassigned) [FR-1, 2,4,8,10-tetraoxa-3,9-diphosphaspiro[5.5]undecane,3,9-dibenzyl-3,9-dioxide] | 0.5 | ◯ | 0.01 g/100 g of water | 18 μm | 150 μm |
